How the values were obtained:
[1] = system: whole cells (NMuLi, C2C12, and L6 cells, isolated cardiomyocytes, human primary fibroblasts); experiment: Oxygen consumption rate (OCR) in whole cells, Seahorse XF-24 Flux Analyzer; assay type: cell-based
Experimental: Biological activities of the compounds synthesized is determined by determining increase in oxygen consumption rate (OCR).
Oxygen consumption rate (OCR) in whole cells is measured in general accordance with the method of Kenwood B M et al. (Mol. Met. (2014) 3: 114-123).
OCR is measured using a Seahorse XF-24 Flux Analyzer (Seahorse Biosciences, North Billerica, Mass.). NMuLi, C2C12, and L6 cells are seeded in a Seahorse 24-well tissue culture plate at a density of 3.5×10^4 cells/well, isolated cardiomyocytes at a density of 4×10^4 cells/well, and human primary fibroblasts at a density of 1.1×10^4 cells/well. The cells are then allowed to adhere for 24 h. Prior to the assay, the media is changed to unbuffered DMEM containing pyruvate and glutamine (Gibco #12800-017, pH=7.4 at 37° C.) and the cells are equilibrated for 30 mins at 37° C. Compounds are injected during the assay and OCR is measured using 2 min measurement periods.
2-3 wells are used per condition and averaged over three plates (n=6-9). Statistical significance is determined by two-way ANOVA with Bonferroni's posttest.

[2] = patients consuming ~300 mg/d, over several months, without changes in food intake; cited from earlier work

FC(F)(F)Oc1ccc(Nc2ncc(C(F)(F)F)nc2OCc2ccccc2)cc1 [Compound 3-18, 3-(Benzyloxy)-N-(4-(Trifluoromethoxy)Phenyl)-5-(Trifluoromethyl)Pyrazin-2-Amine]
increase in oxygen consumption rate (OCR) [1]: observable activity

Oc1nc(C(F)(F)F)cnc1Nc1ccc(OC(F)(F)F)cc1 [Compound 3-19, 3-((4-(Trifluoromethoxy)Phenyl)Amino)-6-(Trifluoromethyl)Pyrazin-2-Ol]
increase in oxygen consumption rate (OCR) [1]: observable activity

Oc1nc(-c2ccc(C(F)(F)F)cc2)cnc1Nc1ccc(OC(F)(F)F)cc1 [Compound 3-26, 3-((4-(Trifluoromethoxy)Phenyl)Amino)-6-(4-(Trifluoromethyl)Phenyl) Pyrazin-2-Ol]
increase in oxygen consumption rate (OCR) [1]: observable activity

O=[N+]([O-])c1ccc(O)c([N+](=O)[O-])c1 [DNP, 2,4-dinitrophenol]
Average weight shed [2]: 1.5 pounds per week
